Laboratory results from patent publication US20240307345A1, “R-MDMA and S-MDMA TO ASSIST PSYCHOTHERAPY” (Universitatsspital Basel, priority 2022, published 2024).
Entries after “also recorded” stand apart in the source; their conditions may differ.

Assays:
mice [1] = conditions: cited from earlier work
rhesus monkeys = conditions: cited from earlier work
healthy subjects [2] = assay: Clinical cross-over study, overall comparison of the substances; format: in vivo, human; conditions: conclusion over the doses tested
Experimental: (§1) Study design: The present study compares the acute subjective, physiological and endocrine effects of S-MDMA (125 mg), R-MDMA (125 and 250 mg), MDMA (125 mg) using a placebo-controlled double-blind 5-period cross-over design in 24 healthy subjects. Conditions are 1.) R-MDMA 125 mg, 2). R-MDMA 250 mg, 3) S-MDMA 125 mg, 4) MDMA 125 mg, 5) placebo. Treatment order is counterbalanced. Washout periods between substance administrations are at least 10 days. Study days include a 10-hour study session with a subsequent single measurement (short visit) the next morning (24 hours after drug administration).

healthy subjects [3] = assay: Alteration of mind and mystical-type effects on 5D-ASC and MEQ questionnaires; format: in vivo, human; conditions: 125 mg
Experimental: as §1
(§2) Psychometric assessments: Visual Analog Scale (VAS): VASs is repeatedly used to assess subjective alterations in consciousness over time. Single scales are presented as 100 mm horizontal lines marked with “not at all” on the left and “extremely” on the right. The following VAS items are used: “any drug effect”, “good drug effect”, “bad drug effect”, “stimulated”, “liking”, “happy”, “content”, “talkative”, “open”, “trust”, “feeling close to others”, “anxiety”, “alteration of vision”, “alterations of hearing”, “sounds seem to influence what I see”, “alteration of sense of time”, “the boundaries between myself and my surroundings seem to blur”, “want to be with other people”, and “want to be alone”. Scales are administered before and repeatedly after substance administration and take approximately 2 minutes to fill out. The maximal ratings (Emax, 0-100) and areas under the effect-time curve (AUEC) are defined for each VAS and Emax and AUEC values compared between treatments using analysis of variance. 5-Dimensions of Altered States of Consciousness (5D-ASC): The 5 Dimensions of Altered States of Consciousness (5D-ASC) Scale is a questionnaire containing visual analog scales for 94 items (Studerus et al., 2010). The instrument contains five scales assessing mood, anxiety, derealization, depersonalization, changes in perception, auditory alterations, and reduced vigilance. The scale is well-validated (Studerus et al., 2010) and used internationally to evaluate effects of many other psychoactive substances. The overall psychedelic experience is reflected by the total […] score. Each item of the scale is scored on a 0-100 mm VAS. The attribution of the individual items to the subscales of the 5D-ASC is analyzed according to (Studerus et al., 2010). The 5D-ASC scale is administered once at the end of the session and subjects are instructed to retrospectively rate peak alterations that have been experienced during the study session. Adiective Mood Rating Scale (AMRS): The Adjective Mood Rating Scale (AMRS or EWL60S) is a 60-item Likert scale that allows repeated assessment of mood in 6 dimensions: Activation, inactivation, well-being, anxiety/depressed mood, extra- and introversion, and emotional excitability. The German EWL60S version is used. The AMRS consists of subscales measuring “activation,” “positive mood,” “extraversion,” “introversion,” “inactivation,” and “emotional excitability. The scale has previously been used to evaluate effects of many other psychoactive substances. Emax and AUEC scores will be defined for each subscale and compared between treatments using analysis of variance. The AMRS is administered repeatedly throughout the study session and once 3 days after each session. States of Consciousness Questionnaire (SCQ): In the SCQ, 100-items are rated on a six-point scale. Forty-three items embedded into this questionnaire comprise the Mystical Experience Questionnaire (MEQ) (MacLean et al., 2011) which is sensitive to the effects of psychedelic substances such as LSD. […]

healthy subjects [4] = assay: Autonomic effects (blood pressure, heart rate, body temperature); format: in vivo, human; conditions: 125 mg
Experimental: as §1
Autonomic measures: Blood pressure, heart rate, and body temperature are recorded at baseline and repeatedly throughout the session. Blood pressure (systolic and diastolic) and heart rate are measured with an automatic oscillometric device. Body temperature is measured with an ear thermometer. Emax is determined for each of the measures and for each study session. These Emax values are then compared between drug conditions using analysis of variance.

animals = conditions: various animal studies; cited from earlier work
healthy subjects [5] = assay: Acute subjective effects on the Visual Analog Scale (VAS); format: in vivo, human; conditions: 125 mg; compared with both R-MDMA doses and placebo
Experimental: as §1
Study procedures: The study takes place at the University Hospital Basel. Each of the test sessions last from 8:00 until 18:00 with a short visit the next morning (24 hours after application). An indwelling intravenous catheter is inserted into a subcutaneous vein of the forearm and baseline psychometric measures are obtained. Administration of the substance is at 9:00. Outcome measures (see below) are repeatedly assessed during the study session. Subjects are under continuous medical supervision until any alterations of consciousness have completely subsided and they leave the research facility.
Psychometric assessments: Visual Analog Scale (VAS): VASs is repeatedly used to assess subjective alterations in consciousness over time. Single scales are presented as 100 mm horizontal lines marked with “not at all” on the left and “extremely” on the right. The following VAS items are used: “any drug effect”, “good drug effect”, “bad drug effect”, “stimulated”, “liking”, “happy”, “content”, “talkative”, “open”, “trust”, “feeling close to others”, “anxiety”, “alteration of vision”, “alterations of hearing”, “sounds seem to influence what I see”, “alteration of sense of time”, “the boundaries between myself and my surroundings seem to blur”, “want to be with other people”, and “want to be alone”. Scales are administered before and repeatedly after substance administration and take approximately 2 minutes to fill out. The maximal ratings (Emax, 0-100) and areas under the effect-time curve (AUEC) are defined for each VAS and Emax and AUEC values compared between treatments using analysis of variance. 5-Dimensions of Altered States of Consciousness (5D-ASC): The 5 Dimensions of Altered States of Consciousness (5D-ASC) Scale is a questionnaire containing visual analog scales for 94 items (Studerus et al., 2010). The instrument contains five scales assessing mood, anxiety, derealization, depersonalization, changes in perception, auditory alterations, and reduced vigilance. The scale is well-validated (Studerus et al., 2010) and used internationally to evaluate effects of many other psychoactive substances. The overall psychedelic experience is reflected by the total […] score. Each item of the scale is scored on a 0-100 mm VAS. The attribution of the individual items to the subscales of the 5D-ASC is analyzed according to (Studerus et al., 2010). The 5D-ASC scale is administered once at the end of the session and subjects are instructed to retrospectively rate peak alterations that have been experienced during the study session. Adiective Mood Rating Scale (AMRS): The Adjective Mood Rating Scale (AMRS or EWL60S) is a 60-item Likert scale that allows repeated assessment of mood in 6 dimensions: Activation, inactivation, well-being, anxiety/depressed mood, extra- and introversion, and emotional excitability. The German EWL60S version is used. The AMRS consists of subscales measuring “activation,” “positive mood,” “extraversion,” “introversion,” “inactivation,” and “emotional excitability. The scale has previously been used to evaluate effects of many other psychoactive substances. Emax and AUEC scores will be defined for each subscale and compared between treatments using analysis of variance. The AMRS is administered repeatedly throughout the study session and once 3 days after each session. […]

[6] = 75 mg; earlier study; cited from earlier work
healthy subjects [7] = assay: Connectedness subscale of the PES questionnaire; format: in vivo, human; conditions: 125 mg
healthy subjects [8] = assay: Effects on mood on the Adjective Mood Rating Scale (AMRS); format: in vivo, human; conditions: 125 mg
Experimental: as §1, §2

mice [9] = conditions: compared with R-MDMA; cited from earlier work
[10] = human; after administration of racemic MDMA; compared to R-MDA; cited from earlier work

| Structure (SMILES) | lethal doses (mice [1]) | reinforcing properties (rhesus monkeys) | acute subjective effects and adverse effects (healthy subjects [2]) | acute mystical-type experiences on the 5D-ASC scale (healthy subjects [3]; 24 subjects) | psychedelic effects on the 5D-ASC and the MEQ questionnaires (healthy subjects [3]; compared with placebo (and 125 mg R-MDMA)) | body temperature (healthy subjects [4]) | heart rate (healthy subjects [4]; versus placebo) | social interaction (animals) | VAS “talkative,” “open,” “trust,” and “I feel close to others” (healthy subjects [5]) | body temperature [6] | ratings of connectedness, difference between conditions (healthy subjects [7]) | effects on the AMRS (healthy subjects [8]) | onset of interoceptive effects (mice [9]) | plasma levels of the active metabolite [10] | time of peak plasma level of the active metabolite [10] |
| --- | --- | --- | --- | --- | --- | --- | --- | --- | --- | --- | --- | --- | --- | --- | --- |
| CNC(C)Cc1ccc2c(c1)OCO2 (racemic) [(±)-MDMA, ±3,4-methylenedioxymethamphetamine, reference compound] | similar | moderate reinforcing properties | overall comparable | comparable effects with no significant differences | comparable and overall greater psychedelic effects | increased similarly; also recorded: increased body temperature only moderately | increase heart rate comparably and more than with placebo | Increased social interaction | higher values | did not significantly increase body temperature | no difference | comparable effects | faster | – | – |
| C[C@H](N)Cc1ccc2c(c1)OCO2 [S-MDA] | – | – | – | – | – | – | – | – | – | – | – | – | – | higher | peaked earlier |
